According to ChEMBL document CHEMBL1201862, “PubChem BioAssay data set” (2004):
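Protocol summary: plate cells (96-well), add compound at 5 concentrations, incubate 48 h, interpolate endpoints linearly. GI50 = concentration required for 50% inhibition of growth.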 Active and inactive are the calls of the source. Cut-off read from the data, not from the text of the source: active = GI50 up to about 1.1 µM and inactive = higher.

Tests used:
Experiment in all cases: NCI tumour cell line growth inhibition, 48 h
ACHN = tested on: ACHN
CCRF-CEM = tested on: CCRF-CEM
DU-145 = tested on: DU-145
HCC 2998 = tested on: HCC 2998
HCT-116 = tested on: HCT-116
HOP-62 = tested on: HOP-62
IGROV-1 = tested on: IGROV-1
M14 = tested on: M14
MDA-N = tested on: MDA-N
NCI/ADR-RES = tested on: NCI/ADR-RES
OVCAR-3 = tested on: OVCAR-3
PC-3 = tested on: PC-3
SF-268 = tested on: SF-268
SK-MEL-2 = tested on: SK-MEL-2
T47D = tested on: T47D
U-251 = tested on: U-251
UO-31 = tested on: UO-31
CAKI-1 = tested on: CAKI-1
COLO 205 = tested on: COLO 205
SNB-75 = tested on: SNB-75

| SMILES | GI50 (ACHN) | GI50 (CCRF-CEM) | GI50 (DU-145) | GI50 (HCC 2998) | GI50 (HCT-116) | GI50 (HOP-62) | GI50 (IGROV-1) | GI50 (M14) | GI50 (MDA-N) | GI50 (NCI/ADR-RES) | GI50 (OVCAR-3) | GI50 (PC-3) | GI50 (SF-268) | GI50 (SK-MEL-2) | GI50 (T47D) | GI50 (U-251) | GI50 (UO-31) | GI50 (CAKI-1) | GI50 (COLO 205) | GI50 (SNB-75) |
| --- | --- | --- | --- | --- | --- | --- | --- | --- | --- | --- | --- | --- | --- | --- | --- | --- | --- | --- | --- | --- |
| COc1cc(N(C)C)c(OC)cc1C=C1C=CC=C1 | > 100 µM (inactive) | 54.1 µM (inactive) | > 100 µM (inactive) | > 100 µM (inactive) | 82.4 µM (inactive) | > 100 µM (inactive) | > 100 µM (inactive) | > 100 µM (inactive) | 44.1 µM (inactive) | 74.6 µM (inactive) | > 100 µM (inactive) | > 100 µM (inactive) | > 100 µM (inactive) | > 100 µM (inactive) | 41.3 µM (inactive) | > 100 µM (inactive) | > 100 µM (inactive) |  |  |  |
| CSc1ncnc2c1ncn2CCC(=O)OC(C)(C)C | > 100 µM (inactive) | > 100 µM (inactive) | > 100 µM (inactive) | > 100 µM (inactive) | > 100 µM (inactive) | > 100 µM (inactive) | > 100 µM (inactive) | > 100 µM (inactive) | > 100 µM (inactive) | > 100 µM (inactive) | > 100 µM (inactive) | > 100 µM (inactive) | > 100 µM (inactive) |  | > 100 µM (inactive) |  | > 100 µM (inactive) | > 100 µM (inactive) | > 100 µM (inactive) | > 100 µM (inactive) |
| O=c1c(-c2ccc(Cl)cc2)nnc2n(Cc3ccccc3)c3ccccc3n12 | 21.7 µM (inactive) | > 100 µM (inactive) | > 100 µM (inactive) | > 100 µM (inactive) | 50.5 µM (inactive) | 23.6 µM (inactive) | 18.7 µM (inactive) | 43.4 µM (inactive) | > 100 µM (inactive) | 52.7 µM (inactive) |  | 30.1 µM (inactive) | 23.3 µM (inactive) | 44.2 µM (inactive) | 67.9 µM (inactive) | 23.7 µM (inactive) | 44.4 µM (inactive) | 16.4 µM (inactive) | > 100 µM (inactive) | 13 µM (inactive) |
| N#CCN1c2ccccc2CCC1Cl (centres undefined) | > 10 µM (inactive) | > 10 µM (inactive) | > 10 µM (inactive) | > 10 µM (inactive) | > 10 µM (inactive) | > 10 µM (inactive) | > 10 µM (inactive) | > 10 µM (inactive) | > 10 µM (inactive) | > 10 µM (inactive) | > 10 µM (inactive) | > 10 µM (inactive) | > 10 µM (inactive) |  | > 10 µM (inactive) | > 10 µM (inactive) | > 10 µM (inactive) | > 10 µM (inactive) | > 10 µM (inactive) |  |
| Cc1nc(-c2cc3c(ccc4ccccc43)oc2=O)cs1 | 63.7 µM (inactive) | > 100 µM (inactive) | > 100 µM (inactive) | > 100 µM (inactive) | > 100 µM (inactive) | 35.7 µM (inactive) | 21.5 µM (inactive) | 83.9 µM (inactive) | > 100 µM (inactive) | 48.3 µM (inactive) |  | 70.8 µM (inactive) | 35.6 µM (inactive) | > 100 µM (inactive) | > 100 µM (inactive) | 57.9 µM (inactive) | 46.3 µM (inactive) | > 100 µM (inactive) | > 100 µM (inactive) | 36.6 µM (inactive) |
| CCN1CCC(O)(/C=C/c2ccc(OC)cc2)C(C(=O)/C=C/c2ccc(OC)cc2)C1 (centres undefined) | 13.7 µM (inactive) | 1.34 µM (inactive) | 10.9 µM (inactive) | 14.9 µM (inactive) | 3.81 µM (inactive) | 18.2 µM (inactive) | 13.7 µM (inactive) | 15.5 µM (inactive) | 7.5 µM (inactive) | 6.15 µM (inactive) | 14.1 µM (inactive) | 11.3 µM (inactive) | 13.8 µM (inactive) |  | 6.04 µM (inactive) | 6.34 µM (inactive) | 9.93 µM (inactive) |  | 4.2 µM (inactive) |  |
| Cc1cn(CC2=NCC(C)(C)CN2)c(=O)[nH]c1=O | > 100 µM (inactive) | > 100 µM (inactive) | > 100 µM (inactive) | > 100 µM (inactive) | > 100 µM (inactive) | > 100 µM (inactive) | > 100 µM (inactive) | > 100 µM (inactive) | > 100 µM (inactive) | > 100 µM (inactive) |  | > 100 µM (inactive) | > 100 µM (inactive) | > 100 µM (inactive) | > 100 µM (inactive) | > 100 µM (inactive) | > 100 µM (inactive) |  | > 100 µM (inactive) | > 100 µM (inactive) |
| CCOC(=O)C1(O)C(=O)C2=C3C(=O)OC(C4OC(=O)c5c(c(O)c(O)c(O)c5C31)-c1c(cc(O)c(O)c1O)C(=O)OC1COC(=O)c3cc(O)c(O)c(O)c3-c3c(cc(O)c(O)c3O)C(=O)OC14)[C@@H]2O (some centres undefined) | 17.8 µM (inactive) | 17.2 µM (inactive) | 31 µM (inactive) | 25.7 µM (inactive) | 15.6 µM (inactive) | 36.5 µM (inactive) | 26 µM (inactive) | 21.8 µM (inactive) | 14.9 µM (inactive) | 27.6 µM (inactive) | 32.6 µM (inactive) | 46 µM (inactive) | 22.4 µM (inactive) | 25.7 µM (inactive) | 24.8 µM (inactive) | 19.2 µM (inactive) | 26.4 µM (inactive) | 13 µM (inactive) | 15.7 µM (inactive) |  |
| O=c1c(Br)cc2c(-c3ccccc3)c3cc(Br)c(O)c(Br)c3oc-2c1Br | > 100 µM (inactive) | > 100 µM (inactive) | > 100 µM (inactive) | 83.8 µM (inactive) | 44.8 µM (inactive) | > 100 µM (inactive) | > 100 µM (inactive) | > 100 µM (inactive) | > 100 µM (inactive) | > 100 µM (inactive) | > 100 µM (inactive) | > 100 µM (inactive) | > 100 µM (inactive) |  | > 100 µM (inactive) | > 100 µM (inactive) | > 100 µM (inactive) | > 100 µM (inactive) | 51.2 µM (inactive) |  |
| CC(CCOc1ccc2ccc(=O)oc2c1)C1=CC(=O)C(C)(C)O1 (centres undefined) | 3.18 µM (inactive) | 0.499 µM (active) | 2.39 µM (inactive) | 2.67 µM (inactive) | 2.64 µM (inactive) | 5.12 µM (inactive) | 3.2 µM (inactive) | 3.92 µM (inactive) | 2.77 µM (inactive) | 2.12 µM (inactive) | 3.22 µM (inactive) | 4.03 µM (inactive) | 1.71 µM (inactive) | 3.37 µM (inactive) | 2.02 µM (inactive) | 2.69 µM (inactive) | 3.05 µM (inactive) | 2.86 µM (inactive) | 2.42 µM (inactive) |  |
| CC(=O)Oc1ccc(-c2cc3ccccc3oc2=O)cc1OC(C)=O | 16.8 µM (inactive) | 5.3 µM (inactive) | 24.9 µM (inactive) | 18.7 µM (inactive) | 34.7 µM (inactive) | 43.7 µM (inactive) |  | 21.6 µM (inactive) | 25.8 µM (inactive) | 21.3 µM (inactive) |  | 47.5 µM (inactive) | 27.9 µM (inactive) | 38.5 µM (inactive) | 36.2 µM (inactive) | 32.7 µM (inactive) | 10.9 µM (inactive) |  | 43.5 µM (inactive) | 26.9 µM (inactive) |
